From US9073855B2, “BCL-2 selective apoptosis-inducing agents for the treatment of cancer and immune diseases” (AbbVie Inc., priority 2008, dated 2015)

What was measured:
GST-Bcl-2 = GST-Bcl-2 (Homo sapiens, UniProt P10415); test: TR-FRET binding assay, GST-Bcl-2 with F-Bak peptide probe; settings: for Ki: TR-FRET Binding Affinity, GST-Bcl-2, F-Bak peptide probe; for Binding selectivity ratio (Bcl-XL Ki/Bcl-2 Ki): ratio of TR-FRET Ki values, Bcl-XL over Bcl-2
Outline: (§1)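 Displacement of a fluorescein-labelled Bak peptide from the GST-tagged protein was followed by time-resolved FRET with a terbium anti-GST donor after 3 h incubation at room temperature. Inhibition constants were calculated with Wang's equation.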

FL5.12/Bcl-2 cells = test: FL5.12/Bcl-2 cell viability assay under IL-3 withdrawal (CellTitre Glo); format: cell-based, murine; settings: Mus musculus, IL-3 withdrawn 48 hrs, then 24 hrs with compound
Outline: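 Murine IL-3-dependent FL5.12 cells stably overexpressing Bcl-2 were deprived of IL-3 (WEHI-3B conditioned medium omitted) for 48 hrs, then exposed to various compound concentrations for a further 24 hrs at 37° C, 5% CO2. Viability was read by CellTitre Glo luminescence.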

GST-Bcl-XL = GST-Bcl-XL (Homo sapiens, UniProt Q07817); test: TR-FRET binding assay, GST-Bcl-XL with F-Bak peptide probe; settings: TR-FRET Binding Affinity, GST-Bcl-XL, F-Bak peptide probe
Chain of GST-Bcl-XL (Q07817 whole entry): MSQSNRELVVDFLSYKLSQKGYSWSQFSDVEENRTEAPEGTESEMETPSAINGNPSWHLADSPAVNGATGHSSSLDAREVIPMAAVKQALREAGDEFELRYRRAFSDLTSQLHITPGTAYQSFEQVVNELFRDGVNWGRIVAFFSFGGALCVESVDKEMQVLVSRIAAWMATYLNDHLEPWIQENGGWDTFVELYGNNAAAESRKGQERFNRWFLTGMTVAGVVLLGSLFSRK
Outline: as §1

Chain of GST-Bcl-2 (P10415 whole entry): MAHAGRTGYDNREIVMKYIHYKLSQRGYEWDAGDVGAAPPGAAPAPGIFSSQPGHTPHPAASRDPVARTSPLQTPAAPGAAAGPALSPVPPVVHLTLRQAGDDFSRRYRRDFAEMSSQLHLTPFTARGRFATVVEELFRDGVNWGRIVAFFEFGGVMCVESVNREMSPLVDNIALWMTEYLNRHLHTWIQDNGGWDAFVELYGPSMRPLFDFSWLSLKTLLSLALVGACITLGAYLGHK

| SMILES | Ki (GST-Bcl-2) [nM] | EC50 (FL5.12/Bcl-2 cells) [nM] | Ki (GST-Bcl-XL) [nM] | Binding selectivity ratio (Bcl-XL Ki/Bcl-2 Ki) (GST-Bcl-2) |
| --- | --- | --- | --- | --- |
| CC1(C)CCC(CN2CCN(c3ccc(C(=O)NS(=O)(=O)c4cc(F)c(NCC5CCOCC5)cc4Cl)c(Oc4ccc5[nH]ccc5c4)c3)CC2)=C(c2ccc(Cl)cc2)C1 [Example 379, N-({2-chloro-5-fluoro-4-[(tetrahydro-2H-pyran-4-ylmethyl)amino]phenyl}sulfonyl)-4-(4-{[2-(4-chlorophenyl)-4,4-dimethylcyclohex-1-en-1-yl]methyl}piperazin-1-yl)-2-(1H-indol-5-yloxy)benzamide] | 256 | > 500 | > 660 | – |
| CC1(C)CCC(CN2CCN(c3ccc(C(=O)NS(=O)(=O)c4ccc(NCCN5CCNC(=O)C5)c([N+](=O)[O-])c4)c(Oc4cccc5[nH]ccc45)c3)CC2)=C(c2ccc(Cl)cc2)C1 [Example 280, 4-(4-{[2-(4-chlorophenyl)-4,4-dimethylcyclohex-1-en-1-yl]methyl}piperazin-1-yl)-2-(1H-indol-4-yloxy)-N-[(3-nitro-4-{[2-(3-oxopiperazin-1-yl)ethyl]amino}phenyl)sulfonyl]benzamide] | 0.178 | 247 | 195 | – |
| CC1(C)CCC(CN2CCN(c3ccc(C(=O)NS(=O)(=O)c4ccc(NC5CCS(=O)(=O)C5)c([N+](=O)[O-])c4)c(Oc4ccc5[nH]ccc5c4)c3)CC2)=C(c2ccc(Cl)cc2)C1 (centres unmarked) [Example 276, 4-(4-{[2-(4-chlorophenyl)-4,4-dimethylcyclohex-1-en-1-yl]methyl}piperazin-1-yl)-N-({4-[(1,1-dioxidotetrahydrothien-3-yl)amino]-3-nitrophenyl}sulfonyl)-2-(1H-indol-5-yloxy)benzamide] | 0.144 | 62.2 | 381 | – |
| Cn1ncc(-c2ccc(Cl)cc2)c1CN1CCN(c2ccc(C(=O)NS(=O)(=O)c3ccc(NCC4CCOCC4)c([N+](=O)[O-])c3)c(Oc3ccc4[nH]ccc4c3)c2)CC1 [Example 285, 4-(4-{[4-(4-chlorophenyl)-1-methyl-1H-pyrazol-5-yl]methyl}piperazin-1-yl)-2-(1H-indol-5-yloxy)-N-({3-nitro-4-[(tetrahydro-2H-pyran-4-ylmethyl)amino]phenyl}sulfonyl)benzamide] | 6.99 | > 500 | > 660 | – |
| CC1(C)CCC(CN2CCN(c3ccc(C(=O)NS(=O)(=O)c4ccc(NCCc5ccc(S(N)(=O)=O)cc5)c([N+](=O)[O-])c4)c(Oc4ccc5[nH]ccc5c4)c3)CC2)=C(c2ccc(Cl)cc2)C1 [Example 376, N-{[4-({2-[4-(aminosulfonyl)phenyl]ethyl}amino)-3-nitrophenyl]sulfonyl}-4-(4-{[2-(4-chlorophenyl)-4,4-dimethylcyclohex-1-en-1-yl]methyl}piperazin-1-yl)-2-(1H-indol-5-yloxy)benzamide] | 22.4 | > 500 | > 660 | – |
| CC1(C)CCC(CN2CCN(c3ccc(C(=O)NS(=O)(=O)c4ccc(NCC56CC7CC(C5)C(O)C(C7)C6)c([N+](=O)[O-])c4)c(Oc4ccc5[nH]ccc5c4)c3)CC2)=C(c2ccc(Cl)cc2)C1 (stereo not drawn) [Example 322, 4-(4-{[2-(4-chlorophenyl)-4,4-dimethylcyclohex-1-en-1-yl]methyl}piperazin-1-yl)-N-{[4-({[Cis-4-hydroxy-1-adamantyl]methyl}amino)-3-nitrophenyl]sulfonyl}-2-(1H-indol-5-yloxy)benzamide] | 0.184 | 44.5 | > 660 | >3591.4 |
| O=C(NS(=O)(=O)c1ccc(NC2CCN(C3CCOCC3)CC2)c([N+](=O)[O-])c1)c1ccc(N2CCN(CC3=C(c4ccc(Cl)cc4)CCC(O)C3)CC2)cc1Oc1ccc2[nH]ccc2c1 (centres unmarked) [Example 225, 4-(4-{[2-(4-chlorophenyl)-5-hydroxycyclohex-1-en-1-yl]methyl}piperazin-1-yl)-2-(1H-indol-5-yloxy)-N-({3-nitro-4-[(1-tetrahydro-2H-pyran-4-ylpiperidin-4-yl)amino]phenyl}sulfonyl)benzamide] | 0.01 | 29.9 | 3.48 | – |
| CC1(C)CCC(CN2CCN(c3ccc(C(=O)NS(=O)(=O)c4cnc(NCC5CCOCC5)c(-c5nccs5)c4)c(Oc4cccc5[nH]ccc45)c3)CC2)=C(c2ccc(Cl)cc2)C1 [Example 365, 4-(4-{[2-(4-chlorophenyl)-4,4-dimethylcyclohex-1-en-1-yl]methyl}piperazin-1-yl)-2-(1H-indol-4-yloxy)-N-{[6-[(tetrahydro-2H-pyran-4-ylmethyl)amino]-5-(1,3-thiazol-2-yl)pyridin-3-yl]sulfonyl}benzamide] | 1.08 | > 500 | > 660 | – |
| CC1(C)CCC(CN2CCN(c3ccc(C(=O)NS(=O)(=O)c4ccc(NCCC#N)c([N+](=O)[O-])c4)c(Oc4ccc5[nH]ccc5c4)c3)CC2)=C(c2ccc(Cl)cc2)C1 [Example 319, 4-(4-{[2-(4-chlorophenyl)-4,4-dimethylcyclohex-1-en-1-yl]methyl}piperazin-1-yl)-N-({4-[(2-cyanoethyl)amino]-3-nitrophenyl}sulfonyl)-2-(1H-indol-5-yloxy)benzamide] | 0.413 | 31.4 | 208 | – |
| CC1(C)CCC(CN2CCN(c3ccc(C(=O)NS(=O)(=O)c4ccc(OCC5CCOC(C)(C)C5)c([N+](=O)[O-])c4)c(Oc4ccc5[nH]ccc5c4)c3)CC2)=C(c2ccc(Cl)cc2)C1 (centres unmarked) [Example 384, 4-(4-{[2-(4-chlorophenyl)-4,4-dimethylcyclohex-1-en-1-yl]methyl}piperazin-1-yl)-N-({4-[(2,2-dimethyltetrahydro-2H-pyran-4-yl)methoxy]-3-nitrophenyl}sulfonyl)-2-(1H-indol-5-yloxy)benzamide] | 0.076 | 101 | > 660 | – |
| CC1(C)CCC(CN2CCN(c3ccc(C(=O)NS(=O)(=O)c4ccc(NCC5(N6CCOCC6)CCCCC5)c([N+](=O)[O-])c4)c(Oc4ccc5[nH]ccc5c4)c3)CC2)=C(c2ccc(Cl)cc2)C1 [Example 229, 4-(4-{[2-(4-chlorophenyl)-4,4-dimethylcyclohex-1-en-1-yl]methyl}piperazin-1-yl)-2-(1H-indol-5-yloxy)-N-[(4-{[(1-morpholin-4-ylcyclohexyl)methyl]amino}-3-nitrophenyl)sulfonyl]benzamide] | 49.4 | > 500 | > 660 | – |
| CC1(C)CCC(CN2CCN(c3ccc(C(=O)NS(=O)(=O)c4cccc(C(=O)NCC5CCOCC5)c4)c(Oc4ccc5[nH]ccc5c4)c3)CC2)=C(c2ccc(Cl)cc2)C1 [Example 345, 4-(4-{[2-(4-chlorophenyl)-4,4-dimethylcyclohex-1-en-1-yl]methyl}piperazin-1-yl)-2-(1H-indol-5-yloxy)-N-[(3-{[(tetrahydro-2H-pyran-4-ylmethyl)amino]carbonyl}phenyl)sulfonyl]benzamide] | 1.15 | > 500 | > 660 | – |
| CN1CCC(Nc2ccc(S(=O)(=O)NC(=O)c3ccc(N4CCN(CC5=C(c6ccc(Cl)cc6)CC(C)(C)CC5)CC4)cc3Nc3cccnc3)cc2[N+](=O)[O-])CC1 [Example 396, 4-(4-{[2-(4-chlorophenyl)-4,4-dimethylcyclohex-1-en-1-yl]methyl}piperazin-1-yl)-N-({4-[(1-methylpiperidin-4-yl)amino]-3-nitrophenyl}sulfonyl)-2-(pyridin-3-ylamino)benzamide] | 116 | > 500 | > 660000 | >5705.9 |
| CC(C)(C)c1ccc(CN2CCN(c3ccc(C(=O)NS(=O)(=O)c4ccc(NC5CCN(C6CCOCC6)CC5)c([N+](=O)[O-])c4)c(Oc4ccc5[nH]ccc5c4)c3)CC2)c(-c2ccc(Cl)cc2)c1 [Example 359, 4-{4-[(5-tert-butyl-4′-chloro-1,1′-biphenyl-2-yl)methyl]piperazin-1-yl}-2-(1H-indol-5-yloxy)-N-({3-nitro-4-[(1-tetrahydro-2H-pyran-4-ylpiperidin-4-yl)amino]phenyl}sulfonyl)benzamide] | 13.5 | > 500 | > 660 | – |
| CC1(C)CCC(CN2CCN(c3ccc(C(=O)NS(=O)(=O)c4ccc(NCC5CCOCC5)c([N+](=O)[O-])c4)c(Oc4cccc5[nH]cnc45)c3)CC2)=C(c2ccc(Cl)cc2)C1 [Example 403, 2-(1H-benzimidazol-4-yloxy)-4-(4-{[2-(4-chlorophenyl)-4,4-dimethylcyclohex-1-en-1-yl]methyl}piperazin-1-yl)-N-({3-nitro-4-[(tetrahydro-2H-pyran-4-ylmethyl)amino]phenyl}sulfonyl)benzamide] | 0.003 | 2.92 | 24.3 | – |
| CC1(C)CCC(CN2CCN(c3ccc(C(=O)NS(=O)(=O)c4ccc(NC5CCN(CCCC(F)(F)F)CC5)c([N+](=O)[O-])c4)c(Oc4cccc5[nH]ccc45)c3)CC2)=C(c2ccc(Cl)cc2)C1 [Example 210, 4-(4-{[2-(4-chlorophenyl)-4,4-dimethylcyclohex-1-en-1-yl]methyl}piperazin-1-yl)-2-(1H-indol-4-yloxy)-N-[(3-nitro-4-{[1-(4,4,4-trifluorobutyl)piperidin-4-yl]amino}phenyl)sulfonyl]benzamide] | 0.624 | 257 | > 660 | – |
| CC1(C)CCC(CN2CCN(c3ccc(C(=O)NS(=O)(=O)c4ccc(OC[C@@H]5COCCO5)c([N+](=O)[O-])c4)c(Oc4ccc5[nH]ccc5c4)c3)CC2)=C(c2ccc(Cl)cc2)C1 [Example 347, 4-(4-{[2-(4-chlorophenyl)-4,4-dimethylcyclohex-1-en-1-yl]methyl}piperazin-1-yl)-N-({4-[(2S)-1,4-dioxan-2-ylmethoxy]-3-nitrophenyl}sulfonyl)-2-(1H-indol-5-yloxy)benzamide] | 0.243 | 46.8 | 306 | – |
